Laboratory results reported in US20030096264A1, “Multi-parameter high throughput screening assays (MPHTS)” (Psychiatric Genomics, Inc., priority 2001, published 2003).

Columns and labels:
[1] = tested on: rat (rattus norvegicus) neuronal cells; assay: Microarray expression profile of primary rat cortical neurons incubated with valproate; type: cell-based; conditions: 0.5 mM valproate, 3 days
Source text: This example describes experiments, which analyzed changes in the expression profile for rat (rattus norvegicus) neuronal cells induced by valproate, a drug used clinically to treat neuropsychiatric disorders such as bipolar disorder. […] Expression profiles for these genes are compared to expression profiles for orthologous genes in human schizophrenia patients.
Primary neuron cells were isolated from E19 rat embryos and cultured as follows. First, the cortex was dissected from each embryo and placed in HBSS solution. The HBSS solution was subsequently removed and replaced with 5 ml papain solution at a concentration of 10 units per ml. The cortex was then incubated in the papain solution for 10 minutes and at 37° C. After incubation, the Papain solution was removed and 10% NuSerum media (Becton Dickinson, Bedford Mass.) was added in its place. The cortex was then centrifuged at 1000 rpm for 10 minutes, after which time the solution was removed and 1 ml of media containing 0.1% DNase was added. Cells were titurated immediately to break up the tissue. The volume of the cell suspensions was brought up to 15 ml and the cells were counted.
Approximately 4×10^6 cells were plated per 10 cm dish, in NeuroBasal A (Invitrogen Corp., Carlsbad Calif.) medium containing B27 and insulin (25 μg/ml). The cell cultures were incubated in a humidified incubator with 5% CO2 and at 37° C. The culture media were changed every 2 days. Cells were incubated in 0.5 mM valproate for 3 days. Control cultures were also prepared and incubated under the same conditions (including the carrier DMSO) but without valproate.
mRNA was extracted from each group of cultures and expression profiles were measured on microarrays according to standard techniques (see the Detailed Description section, infra). Data from duplicate microarrays was statistically evaluated to identify genes that are differentially expressed in the presence of valproate, relative to expression levels in the absence of valproate.
Table 1, below, lists the twelve genes identified in these experiments as being differentially expressed in the presence of valproate, relative to its expression level in the absence of valproate. These genes were identified using a Rat Toxicology array from Incyte (Palo Alto, Calif.). Each gene is listed in Table 1 by its common or popular name, along with the GenBank Accession and Gene Identification (GI) numbers of the rat gene whose expression level was evaluated in these experiments. The “expression ratio” measured for each gene is also specified. Specifically, the expression ratio, Φ, was calculated using the formula: [formula]
where Ev is the expression level measured in cells incubated with valproate and Eo is the expression level in the absence of valproate.

[2] = tested on: human neuroblastoma cell line NBFL; assay: Microarray expression profile of NBFL cells incubated with valproate; type: cell-based; conditions: 0.5 mM valproate, 24 h
Experimental: The additional signature genes described here were identified using a human neuroblastoma cell line that is known in the art as NBFL (see, Symes et al., Proc. Natl. Acad. Sci. U.S.A. 1993, 90(2):572-576). NBFL cell cultures were maintained in DMEM medium supplemented with L-glutmine, antibiotics, 10% fetal bovine serum and 5% horse serum. Before treatment, cells were passaged, allowed to adhere overnight, and the medium was replaced with serum free medium for 24 hours. The cells were then incubated for 24 hours in either the presence or absence of valproate (0.5 mM), and in the absence of serum. mRNA was extracted from each group of cultures and sent to a commercial company for expression profiling by hybridization to microarrays. Data from at least three independent microarray experiments was then statistically evaluated to identify genes that are differentially expressed in the presence of valproate, relative to expression levels in the absence of valproate.
Table 3, below, list each of the genes whose expression level changed in cells exposed to valproate, identified using a UniGem V2 array from Incyte (Palo Alto, Calif.) and also provides the expression ratio ((), defined in Example 1, supra) measured for each gene. Each gene is identified in Table 3 by its common name, as well as by the GenBank Accession and Gene Identification (GI) numbers for its nucleotide sequence. A cDNA sequence for each gene listed in Table 3 is also provided in the accompanying Sequence Listing, and its sequence identifier is specified in Table 3 along with the GenBank Accession number. Table 3 also indicates the Unigene cluster number for each gene from a recent build of the NCBI Unigene database.

In the case of `CCCC(CCC)C(=O)O` [valproate], the “expression ratio Φ: myelin-associated glycoprotein (MAG)” value ([1]; vs no valproate, M22357 SEQ ID NO: 1) is reported as 2.16, the “expression ratio Φ: calmodulin” value ([1]; AF178845 SEQ ID NO: 5) is reported as −1.95 and the “expression ratio Φ: SCG10” value ([1]; AY004290 SEQ ID NO: 4) is reported as −1.43. For the same molecule, the “expression ratio Φ: selenoprotein P” value ([1]; D25221 SEQ ID NO: 11) was 1.51, the “expression ratio Φ: plasma membrane calcium ATPase” value ([1]; J03753 SEQ ID NO: 12) was −1.36 and the “expression ratio Φ: GAP-43” value ([1]; L21191 SEQ ID NO: 3) was −1.88. For the same molecule, the “expression ratio Φ: 2′,3′-cyclic nucleotide-3′ phosphodiesterase (CNPI)” value ([1]; M18630 SEQ ID NO: 2) was 1.92, the “expression ratio Φ: calcineurin A” value ([1]; M29275 SEQ ID NO: 6) was −1.43 and the “expression ratio Φ: kinesin light chain C” value ([1]; M75148 SEQ ID NO: 8) was −1.53. The “expression ratio Φ: hypoxanthine-guanine phosphoribosyltransferase” value ([1]; M86443 SEQ ID NO: 10) was −1.37, the “expression ratio Φ: cysteine-rich protein” value ([1]; U09567 SEQ ID NO: 9) was 1.49 and the “expression ratio Φ: protein kinase C-binding protein NELL2” value ([1]; U48245 SEQ ID NO: 7) was −1.7. For the same molecule, the “expression ratio Φ: nidogen (NID)” value ([2]; serum free, SEQ ID NO: 25) was 1.7, the “expression ratio Φ: silver (SIL)” value ([2]; SEQ ID NO: 26) was 1.6 and the “expression ratio Φ: Homo sapiens clone 23798 and 23825” value ([2]; SEQ ID NO: 27) was 1.5. The “expression ratio Φ: LIM protein” value ([2]; SEQ ID NO: 28) was 1.4, the “expression ratio Φ: carnitine palmitoyltransferase II” value ([2]; SEQ ID NO: 29) was 1.4 and the “expression ratio Φ: iduronate-2-sulfatase” value ([2]; SEQ ID NO: 30) was 1.4. The “expression ratio Φ: dynamin 1” value ([2]; SEQ ID NO: 31) was 1.4, the “expression ratio Φ: myosin IB” value ([2]; SEQ ID NO: 32) was 1.4 and the “expression ratio Φ: EGF-like-domain” value ([2]; SEQ ID NO: 33) was 1.4. For the same molecule, the “expression ratio Φ: islet cell autoantigen 1” value ([2]; SEQ ID NO: 34) was −1.4, the “expression ratio Φ: regulator of G-protein signaling 5” value ([2]; SEQ ID NO: 35) was −1.4 and the “expression ratio Φ: XPA binding protein 1” value ([2]; SEQ ID NO: 36) was −1.4. The “expression ratio Φ: P311 protein” value ([2]; SEQ ID NO: 37) was −1.4, the “expression ratio Φ: SWI/SNF” value ([2]; SEQ ID NO: 38) was −1.4 and the “expression ratio Φ: ALL1” value ([2]; SEQ ID NO: 39) was −1.4. The “expression ratio Φ: RNA binding motif” value ([2]; SEQ ID NO: 40) was −1.4, the “expression ratio Φ: SMAD1” value ([2]; SEQ ID NO: 41) was −1.4 and the “expression ratio Φ: NADH dehydrogenase (ubiquinone)” value ([2]; SEQ ID NO: 42) was −1.4. For the same molecule, the “expression ratio Φ: calmodulin 2” value ([2]; SEQ ID NO: 43) was −1.4, the “expression ratio Φ: vimentin” value ([2]; SEQ ID NO: 44) was −1.4 and the “expression ratio Φ: GRB2-associated binding protein 1” value ([2]; SEQ ID NO: 45) was −1.5. The “expression ratio Φ: splicing factor 3b (subunit 3)” value ([2]; SEQ ID NO: 46) was −1.5, the “expression ratio Φ: DKFZp547DO26_r1 (EST)” value ([2]; SEQ ID NO: 47) was −1.5 and the “expression ratio Φ: insulinoma-associated 1 (INSM1)” value ([2]; SEQ ID NO: 48) was −1.6. The “expression ratio Φ: neuroendocrine secretory protein 55” value ([2]; SEQ ID NO: 49) was −1.6, the “expression ratio Φ: v-yes-1” value ([2]; SEQ ID NO: 50) was −1.6 and the “expression ratio Φ: chromodomain helicase DNA binding” value ([2]; SEQ ID NO: 51) was −1.6. For the same molecule, the “expression ratio Φ: cholinergic receptor” value ([2]; SEQ ID NO: 52) was −1.7, the “expression ratio Φ: dopmine β-hydroxylase (DBH)” value ([2]; SEQ ID NO: 53) was -1.7 and the “expression ratio Φ: dopa decarboxylase (DDC)” value ([2]; SEQ ID NO: 54) was −2. For the same molecule, the “expression ratio Φ: chromogranin B (CG-B)” value ([2]; SEQ ID NO: 55) was −2.1.
